Read-outs that look alike come from different tables or passages of the source.

Holding throughout (type): cell-based
Data set [1] relates to colon cancer cell line HT29. Description: Growth profile / viability of HT29 colon cancer cells, XTT test. The note with it: Homo sapiens, HT-29, 96 h, Control DMSO = 100%, read-out: percentage of viable cells, HT29. The method, then: (§1) The effect of the compounds Z522-XXX on the growth profile of cancer cells which express Fer was tested. The cells that were tested were: the colon cancer cell lines HT29 and HCT 116, RKO. The effect of each of the compounds on FS cells, a non malingnant fibroblastic cell line, was also studied.
(§2) Generally, cells were seeded in 96 wells microplates and were left to grow untreated overnight. Each of the compounds was dissolved in DMSO and was then added to each well in a final concentration of 5 μM. The concentration of DMSO in each well was 0.4% v/v. Untreated cells and cells subjected to 0.4% DMSO alone, served as controls. The percentage of viable cells in each well was determined 96 hours after compounds addition, using the XTT test (Berridge, M. V. et al, 2005).
Background: Tetrazolium assays rely on reduction of a dye to a coloured formazan, in cell work by metabolically active cells.

Data set [2] in a line: Viability of FS non malignant fibroblastic cells, XTT test. The note with it: FS cells (non-malignant fibroblastic cell line), Control DMSO = 100%, read-out: percentage of viable cells, FS. The method, then:
as §1, §2

Data set [3] relates to colon cancer cell line HCT 116. Description: Growth profile / viability of HCT116 colon cancer cells, XTT test. The note with it: Homo sapiens, HCT-116, 96 h, Control DMSO = 100%, read-out: percentage of viable cells, HCT116. How it is done: as §1, §2
In data set [4] the test system is colon cancer cell line RKO. Put plainly: Growth profile / viability of RKO colon cancer cells, XTT test. The note with it: 96 h, Control DMSO = 100%, read-out: percentage of viable cells, RKO. The method, then:
as §1, §2

For `Cc1c(-c2ccc(N3CCCC(C)C3)cc2)nc2sc(N3CCC(C(=O)N4CCN(C)CC4)CC3)nn12` (stereo not drawn) [Compound Z522-0186, 5-methyl-2-{4-[(4-methyl-piperazin-1-yl)carbonyl]piperidin-1-yl}-6-[4-(3-methylpiperidin-l-yl)phenyl]-imidazo[2,1-b]-[1,3,4]thiadiazole], the viability at 5 µM was 7% in data set [1] (first HT29 column); 7% in data set [1] (second HT29 column); 23% in data set [3] (first HCT116 column); 26% in data set [3] (second HCT116 column); 8% in data set [4] (first RKO column); 11% in data set [4] (second RKO column). Besides, the viability at 96 h, 5 µM in data set [2] (first FS column) was found to be 82%; in data set [2] (second FS column), 94%.
Regarding `Cc1c(-c2ccc(-n3cccn3)cc2)nc2sc(N3CCC(C(=O)N4CCN(C)CC4)CC3)nn12` [Compound Z522-0187, 5-methyl-2-{4-[(4-methyl-piperazin-1-yl)-carbonyl]piperidin-1-yl}-6-[4-(1H-pyrazol-1-yl)-phenyl]imidazo[2,1-b][1,3,4]-thiadiazole], the viability at 5 µM worked out at 99% in data set [1] (first HT29 column); 111% in data set [1] (second HT29 column); 110% in data set [3] (first HCT116 column); 97% in data set [3] (second HCT116 column); 56% in data set [4] (first RKO column); 56% in data set [4] (second RKO column). In addition, the viability at 96 h, 5 µM in data set [2] (first FS column) came to 92%; in data set [2] (second FS column), 94%.
Regarding `Cc1c(-c2ccc(N3CCC(C)CC3)cc2)nc2sc(N3CCC(C(=O)N4CCN(C)CC4)CC3)nn12` [Compound Z522-0190, 5-methyl-2-{4-[(4-methyl-piperazin-1-yl)-carbonyl]piperidin-1-yl}-6-[4-(4-methylpiperidin-1-yl)phenyl]-imidazo[2,1-b]-[1,3,4]thiadiazole], the viability at 5 µM worked out at 7% in data set [1] (first HT29 column); 6% in data set [1] (second HT29 column); 45% in data set [3] (first HCT116 column); 51% in data set [3] (second HCT116 column); 9% in data set [4] (first RKO column); 9% in data set [4] (second RKO column). Moreover, the results for the viability at 96 h, 5 µM in data set [2] (first FS column) and in data set [2] (second FS column) were 86% and 101%, respectively.
For `Cc1c(-c2ccc(N3CCCCCCC3)cc2)nc2sc(N3CCC(C(=O)N4CCN(C)CC4)CC3)nn12` [Compound Z522-0191, 6-(4-azocan-1-ylphenyl)-5-methyl-2-{4-[(4-methylpiperazin-1-yl)carbonyl]-piperidin-1-yl}-imidazo[2,1-b]-[1,3,4]thiadiazole], the viability at 5 µM came to 12% in data set [1] (first HT29 column); 10% in data set [1] (second HT29 column); 39% in data set [3] (first HCT116 column); 41% in data set [3] (second HCT116 column); 23% in data set [4] (first RKO column); 35% in data set [4] (second RKO column). Also, the viability at 96 h, 5 µM in data set [2] (first FS column) turned out to be 103%; in data set [2] (second FS column), 101%.
For `Cc1c(-c2ccc(N3CCCC3)cc2)nc2sc(N3CCC(C(=O)N4CCN(C)CC4)CC3)nn12` [Compound Z522-0195, 5-methyl-2-{4-[(4-methyl-piperazin-1-yl)carbonyl]piperidin-1-yl}-6-(4-pyrrolidin-1-ylphenyl)imidazo [2,1-b][1,3,4]-thiadiazole], the viability at 5 µM turned out to be 91% in data set [1] (first HT29 column); 82% in data set [1] (second HT29 column); 111% in data set [3] (first HCT116 column); 113% in data set [3] (second HCT116 column); 80% in data set [4] (first RKO column); 75% in data set [4] (second RKO column). The viability at 96 h, 5 µM in data set [2] (first FS column) was found to be 109%; in data set [2] (second FS column), 119%.
For the compound `Cc1c(-c2ccc(N3CCOCC3)cc2)nc2sc(N3CCC(C(=O)N4CCN(C)CC4)CC3)nn12` [Compound Z522-0196, 5-methyl-2-{4-[(4-methyl-piperazin-1-yl)-carbonyl]piperidin-1-yl}-6-(4-morpholin-4-ylphenyl)imidazo [2,1-b][1,3,4]-thiadiazole], the viability at 5 µM in data set [1] (first HT29 column) came out at 104%; in data set [1] (second HT29 column), 101%; in data set [3] (first HCT116 column), 105%; in data set [3] (second HCT116 column) it was 104%; in data set [4] (first RKO column) it was 88%; in data set [4] (second RKO column), 93%. Besides, the figures for the viability at 96 h, 5 µM in data set [2] (first FS column) and in data set [2] (second FS column) were 86% and 94%, respectively.

For the origin of these results see US20180186815A1, “PHARMACEUTICAL COMPOSITIONS, METHODS FOR THEIR PREPARATION AND THEIR USE IN THE TREATMENT OF CANCER” (Urifer Ltd., priority 2016, published 2018).
